Assay results reported in PMC4029082, “Functional characterisation of a nicotinic acetylcholine receptor α subunit from the brown dog tick, Rhipicephalus sanguineus^” (International Journal for Parasitology, 2014).

Molecular target: T1, Rsanα1 nicotinic acetylcholine receptor α subunit (Rhipicephalus sanguineus, UniProt V9Z9T0)
T1 construct: full-length Rsanα1 (GenBank KF695387) expressed in Xenopus laevis oocytes; with chicken β2 nAChR subunit
Assay: two-electrode voltage clamp in Xenopus oocytes, concentration-response curve (agonist)
Assay type: cell-based

T1 sequence (V9Z9T0 45-525): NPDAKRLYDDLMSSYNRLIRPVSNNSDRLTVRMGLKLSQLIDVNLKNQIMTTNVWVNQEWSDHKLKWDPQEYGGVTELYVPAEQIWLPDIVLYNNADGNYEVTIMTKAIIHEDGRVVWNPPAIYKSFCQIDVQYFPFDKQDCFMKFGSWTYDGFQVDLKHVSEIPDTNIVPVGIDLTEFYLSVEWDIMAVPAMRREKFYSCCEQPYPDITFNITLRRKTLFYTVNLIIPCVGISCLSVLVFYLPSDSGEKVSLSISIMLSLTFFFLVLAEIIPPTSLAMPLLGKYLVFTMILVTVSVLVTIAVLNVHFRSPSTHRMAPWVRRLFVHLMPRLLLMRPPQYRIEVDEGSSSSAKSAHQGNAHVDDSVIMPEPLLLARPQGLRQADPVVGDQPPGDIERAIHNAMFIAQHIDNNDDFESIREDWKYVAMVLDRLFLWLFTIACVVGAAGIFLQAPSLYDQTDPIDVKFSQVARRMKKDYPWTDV
T1 sequence (P09484 19-491 partner): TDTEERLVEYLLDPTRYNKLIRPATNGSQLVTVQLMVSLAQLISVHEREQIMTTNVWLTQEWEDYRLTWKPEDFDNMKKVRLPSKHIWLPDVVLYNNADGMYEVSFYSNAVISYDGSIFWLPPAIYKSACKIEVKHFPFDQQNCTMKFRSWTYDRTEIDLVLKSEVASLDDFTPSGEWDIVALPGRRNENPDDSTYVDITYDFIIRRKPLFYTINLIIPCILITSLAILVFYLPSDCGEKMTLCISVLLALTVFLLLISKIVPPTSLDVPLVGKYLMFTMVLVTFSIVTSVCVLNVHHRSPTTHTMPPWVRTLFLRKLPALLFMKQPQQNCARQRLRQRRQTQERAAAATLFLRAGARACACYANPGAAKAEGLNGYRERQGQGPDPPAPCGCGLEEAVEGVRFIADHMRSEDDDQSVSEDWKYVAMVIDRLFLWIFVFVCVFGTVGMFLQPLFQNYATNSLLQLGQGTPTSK

How did the EC50 turn out when `CC(=O)OCC[N+](C)(C)C` [acetylcholine] was run?
The EC50 was 10.7 µM.
